Laboratory results taken from the supplement of paper PMC8671470.

What was measured:
Test in all cases: cell viability (% survival relative to DMSO control); higher = less cytotoxic
Conditions in all cases: 72 h
[1] = system: myeloid leukemia patient primary cells Pat.10
How it was run: (§1)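 Where an area under the curve appears, it was computed with the drc and PharmacoGx R packages from log-logistic fits. Those fits used four parameters. The underlying viability data came from CellTiter-Glo after 72 h, normalised to DMSO and 10 μM proteasome-inhibitor wells, with thawed, Ficoll-purified AML or CML patient mononuclear cells at 10,000 cells/well in RPMI 1640 with 10% FBS on 384-well plates pre-printed with 70 compounds at five tenfold concentrations (1–10,000 nM) in duplicate.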

[2] = system: myeloid leukemia patient primary cells Pat.14
How it was run: as §1

[3] = system: myeloid leukemia patient primary cells Pat.5
How it was run: as §1

[4] = system: myeloid leukemia patient primary cells Pat.4
How it was run: as §1

SMILES	cell viability ([1]; 1 nM) [%]	cell viability ([1]; 10 nM) [%]	cell viability ([1]; 100 nM) [%]	cell viability ([1]; 1000 nM) [%]	cell viability ([1]; 10000 nM) [%]	cell viability ([2]; 1 nM) [%]	cell viability ([2]; 10 nM) [%]	cell viability ([2]; 100 nM) [%]	cell viability ([2]; 1000 nM) [%]	cell viability ([2]; 10000 nM) [%]	cell viability ([3]; 1 nM) [%]	cell viability ([3]; 10 nM) [%]	cell viability ([3]; 100 nM) [%]	cell viability ([3]; 1000 nM) [%]	cell viability ([3]; 10000 nM) [%]	cell viability ([4]; 1 nM) [%]	cell viability ([4]; 10 nM) [%]	cell viability ([4]; 100 nM) [%]	cell viability ([4]; 1000 nM) [%]	cell viability ([4]; 10000 nM) [%]
CC12CCC(O)CC1CCC1C2CCC2(C)C(C3=CC(=O)OC3)CCC12O (stereo not given) [Digitoxigenin]	71.9	52.2	> 100	96.8	> 100	95	66.5	78.4	22.2	18.3	56.2	38.7	33.1	0.265	4.43	89.8	81.8	81.6	5.88	1.81
Sc1ncnc2nc[nH]c12 [6-mercaptopurine]	59	63.4	70.1	72.4	56.6	92.6	> 100	74.8	97.9	88	8.91	64.1	35.4	17.2	1.33	79.1	80	85.9	88.2	92.3
CCOC(=O)N1c2ccc(C(F)(F)F)cc2[C@@H](N(Cc2cc(C(F)(F)F)cc(C(F)(F)F)c2)C(=O)OC)C[C@H]1CC [Torcetrapib]	49.2	62.1	78.5	44.5	38.2	84.7	51	> 100	78.3	41.7	56.9	0.265	97.4	27.5	1.18	86.9	86	74.1	97	56.7
Nc1ccn([C@@H]2O[C@H](CO)[C@@H](O)[C@@H]2O)c(=O)n1 [Cytarabine]	89.9	45.1	67	54.1	13.9	85.1	65.1	78.1	62.9	15.8	84.9	1.18	24.7	1.18	2.01	87.3	88.5	75.5	75.1	5.31
C[C@]12O[C@H](C[C@]1(O)CO)n1c3ccccc3c3c4c(c5c6ccccc6n2c5c31)CNC4=O [Lestaurtinib]	64.5	34.5	45.6	73.9	9.05	80.7	43.5	77.9	40.6	4.31	22.6	2.27	10	11.2	< 0	93.5	64.5	8.79	31.2	2.37
Clc1ccc(COC(Cn2ccnc2)c2ccc(Cl)cc2Cl)cc1 (stereo not given) [Econazole]	70.3	85.8	73.5	34.5	< 0	64.1	90.1	82.3	76.3	0.228	42.3	90.6	35.2	6.55	1.33	88	94.6	81.7	88.5	74.9
CCN(CC)CCN(Cc1ccc(-c2ccc(C(F)(F)F)cc2)cc1)C(=O)Cn1c(SCc2ccc(F)cc2)nc(=O)c2c1CCC2 [Darapladib]	66.6	77.8	12.3	93.5	4.94	65.7	92.2	52.5	52.1	2.36	12.5	23.9	5.8	< 0	8.02	73.2	84.2	67.9	83	0.925
Cc1noc2c1-c1ccccc1C(c1ccc(Cl)cc1)=N[C@H]2CC(N)=O [CPI-0610]	68.5	91.9	29.6	27.8	39.2	> 100	84.9	86.4	60.3	60.7	81.3	12.4	82.4	7.88	10.1	82.5	65.6	58.1	6.43	7.38
COc1c(C)c2c(c(O)c1C/C=C(\C)CCC(=O)O)C(=O)OC2 [Mycophenolic acid]	49.6	77.5	79.2	69.8	53.1	75.3	83.7	65.6	95.5	93.4	< 0	62.9	26	67.3	> 100	88.4	95	76.3	89.2	32.9
CC(Cc1ccc(O)c(O)c1)C(C)Cc1ccc(O)c(O)c1 (stereo not given) [Masoprocol]	56.6	47.4	89.9	42.2	> 100	> 100	85.7	96.7	55.8	68.1	57.1	7.88	76.6	21.6	> 100	77.7	91.8	> 100	81.8	19.3
C[C@H]1O[C@@H](O[C@H]2[C@@H](O)C[C@H](O[C@H]3[C@@H](O)C[C@H](O[C@H]4CC[C@@]5(C)[C@H](CC[C@@H]6[C@@H]5C[C@@H](O)[C@]5(C)[C@@H](C7=CC(=O)OC7)CC[C@]65O)C4)O[C@@H]3C)O[C@@H]2C)C[C@H](O)[C@@H]1O [Digoxin]	91.9	57.7	98.8	91.5	> 100	82.1	90.3	69.7	18.9	13.5	82.9	77.9	9.05	2.24	< 0	93	76.1	67.4	3.24	4.37
